Source: patent publication US20140315889A1, “HYDROXAMATE DERIVATIVES FOR HDAC INHIBITOR, AND THE PHARMACEUTICAL COMPOSITION COMPRISING THEREOF” (CHONG KUN DANG PHARMACEUTICAL CORP., priority 2011, published 2014)
Read-outs that look alike come from different tables or passages of the source.

Columns and labels:
[1] = molecular target: HDAC5 (Homo sapiens, UniProt Q9UQL6); assay: HDAC enzyme activity test, HDAC5; format: biochemical; conditions: Table 11, eleven HDAC isozymes; read-out: Inhibition ability (IC50) against HDAC5
Description: (§1) Then, 0.3 μg of enzyme and 10 μM of substrate per well were added, reacted at 30° C. for 60 minutes. Thereto, Fluor de Lys® Developer II (BML-KI176) was added and reacted for 30 minutes. […] From the data, the respective IC50 were calculated by GraphPad Prism 4.0 program.

[2] = molecular target: T1, human recombinant HDAC6 (Homo sapiens, UniProt Q9UBN7); assay: HDAC enzyme activity test, HDAC6; format: biochemical; conditions: for Selectivity for HDAC6, HD1/HD6: ratio HDAC1 IC50 / HDAC6 IC50
T1 construct: purchased Calibiochem Co. (so in the source) 382180
T1 sequence (Q9UBN7 1-1215): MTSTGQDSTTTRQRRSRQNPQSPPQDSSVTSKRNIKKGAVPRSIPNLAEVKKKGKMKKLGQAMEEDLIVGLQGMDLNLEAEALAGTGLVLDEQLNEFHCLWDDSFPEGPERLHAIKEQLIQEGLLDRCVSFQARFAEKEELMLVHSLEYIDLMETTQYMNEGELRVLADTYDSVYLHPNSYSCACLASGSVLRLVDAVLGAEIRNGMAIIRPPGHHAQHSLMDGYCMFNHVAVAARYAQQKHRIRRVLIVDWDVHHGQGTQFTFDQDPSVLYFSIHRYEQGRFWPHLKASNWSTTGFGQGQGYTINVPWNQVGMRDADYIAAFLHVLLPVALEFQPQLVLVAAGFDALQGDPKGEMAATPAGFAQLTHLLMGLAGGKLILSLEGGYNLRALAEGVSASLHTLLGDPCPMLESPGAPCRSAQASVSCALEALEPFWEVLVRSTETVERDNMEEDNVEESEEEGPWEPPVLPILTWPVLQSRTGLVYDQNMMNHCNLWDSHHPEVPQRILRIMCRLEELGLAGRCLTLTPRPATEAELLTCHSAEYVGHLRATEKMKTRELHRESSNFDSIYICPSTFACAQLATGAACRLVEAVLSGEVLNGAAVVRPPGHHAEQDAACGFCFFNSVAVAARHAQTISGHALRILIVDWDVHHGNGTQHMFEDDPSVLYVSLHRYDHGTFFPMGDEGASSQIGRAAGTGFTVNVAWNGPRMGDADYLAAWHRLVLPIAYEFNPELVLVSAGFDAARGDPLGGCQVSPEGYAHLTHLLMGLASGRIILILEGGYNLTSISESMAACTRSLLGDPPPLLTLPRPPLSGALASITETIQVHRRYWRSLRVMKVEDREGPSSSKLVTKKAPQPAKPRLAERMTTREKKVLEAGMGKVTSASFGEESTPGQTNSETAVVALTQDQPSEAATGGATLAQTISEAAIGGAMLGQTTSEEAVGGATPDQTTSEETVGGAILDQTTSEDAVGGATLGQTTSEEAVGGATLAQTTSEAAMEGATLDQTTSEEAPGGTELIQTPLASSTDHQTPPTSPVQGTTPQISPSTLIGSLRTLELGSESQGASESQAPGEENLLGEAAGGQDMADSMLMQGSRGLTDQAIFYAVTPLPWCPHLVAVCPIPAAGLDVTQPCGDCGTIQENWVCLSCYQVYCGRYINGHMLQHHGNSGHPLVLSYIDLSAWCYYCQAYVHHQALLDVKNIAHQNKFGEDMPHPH
Description: as §1

[3] = tested on: collagen-induced arthritis model; assay: Effectiveness of compound 87 in a collagen-induced arthritis model; format: in vivo, DBA1J mice; conditions: for clinical score decreased, compared with the positive control group: vs ITF2357 50 mg/kg group
Source text: 7-week aged male DBA1J mice were used in the experiment. The animal facility was kept at constant temperature and constant humidity with a 12-hr dark/12-hr light cycle, and the animals were allowed to access food and water ad libitum. The animals were acclimated to the cage for 7 days.
Each arthritis-onset animals were selected and then promptly used in the experiments. The experimental animal groups consist of: • A. two vehicle-control groups administered with only vehicle via s.c. (subcutaneous injection) and p.o. (per oral), • B. a positive control group administered with ITF2357 of 50 mg/kg, and • C. two compound test groups administered with compound 87 in each doses of 10 and 50 mg/kg.
A solution of ITF2357 for administration was prepared using 0.5% methylcellulose as a vehicle. It was administered orally to the animals in a volume of 10 ml/kg once a day for 7 days. A solution of compound 87 for administration was prepared using DMSO as a vehicle just before administration. It was administered in a volume of 2 ml/kg via s.c. once a day for 7 days. Two vehicle-control groups were administered with only vehicle once a day for 7 days via s.c. and p.o. separately.
Bovine type 2 collagen (Chondrex) and complete Freund's adjuvant (Chondrex) are mixed in 1:1 to become an emulsion. Each 0.1 ml of the obtained emulsion was injected to the tail of each mouse intradermally. After 21 days, Bovine type 2 collagen (Chondrex) and incomplete Freund's adjuvant (Chondrex) are mixed in 1:1 to become an emulsion. Each 0.1 ml of the obtained emulsion was injected to the hips of each mouse intradermally for boosting. After boosting, feet of the mice were observed once a day. When clinical score was occurred, the drug administration and its evaluation were started. The criterion of clinical score was according to Experimental Example 3.
All the results were expressed as mean±SEM, and each test group and the control groups (vehicle-control group or positive control group) were compared using one-way ANOVA test (Dunnett's test, p<0.001) with GrapicPad Prism 5.0 program.

[4] = molecular target: HDAC9 (Homo sapiens, UniProt Q9UKV0); assay: HDAC enzyme activity test, HDAC9; format: biochemical; conditions: Table 11, eleven HDAC isozymes; read-out: Inhibition ability (IC50) against HDAC9
Description: as §1

[5] = Table 11, eleven HDAC isozymes, read-out: Inhibition ability (IC50) against HDAC6
[6] = Table 12, read-out: Inhibition ability (IC50) HDAC6

Chain of HDAC5 (Q9UQL6 whole entry, species assumed): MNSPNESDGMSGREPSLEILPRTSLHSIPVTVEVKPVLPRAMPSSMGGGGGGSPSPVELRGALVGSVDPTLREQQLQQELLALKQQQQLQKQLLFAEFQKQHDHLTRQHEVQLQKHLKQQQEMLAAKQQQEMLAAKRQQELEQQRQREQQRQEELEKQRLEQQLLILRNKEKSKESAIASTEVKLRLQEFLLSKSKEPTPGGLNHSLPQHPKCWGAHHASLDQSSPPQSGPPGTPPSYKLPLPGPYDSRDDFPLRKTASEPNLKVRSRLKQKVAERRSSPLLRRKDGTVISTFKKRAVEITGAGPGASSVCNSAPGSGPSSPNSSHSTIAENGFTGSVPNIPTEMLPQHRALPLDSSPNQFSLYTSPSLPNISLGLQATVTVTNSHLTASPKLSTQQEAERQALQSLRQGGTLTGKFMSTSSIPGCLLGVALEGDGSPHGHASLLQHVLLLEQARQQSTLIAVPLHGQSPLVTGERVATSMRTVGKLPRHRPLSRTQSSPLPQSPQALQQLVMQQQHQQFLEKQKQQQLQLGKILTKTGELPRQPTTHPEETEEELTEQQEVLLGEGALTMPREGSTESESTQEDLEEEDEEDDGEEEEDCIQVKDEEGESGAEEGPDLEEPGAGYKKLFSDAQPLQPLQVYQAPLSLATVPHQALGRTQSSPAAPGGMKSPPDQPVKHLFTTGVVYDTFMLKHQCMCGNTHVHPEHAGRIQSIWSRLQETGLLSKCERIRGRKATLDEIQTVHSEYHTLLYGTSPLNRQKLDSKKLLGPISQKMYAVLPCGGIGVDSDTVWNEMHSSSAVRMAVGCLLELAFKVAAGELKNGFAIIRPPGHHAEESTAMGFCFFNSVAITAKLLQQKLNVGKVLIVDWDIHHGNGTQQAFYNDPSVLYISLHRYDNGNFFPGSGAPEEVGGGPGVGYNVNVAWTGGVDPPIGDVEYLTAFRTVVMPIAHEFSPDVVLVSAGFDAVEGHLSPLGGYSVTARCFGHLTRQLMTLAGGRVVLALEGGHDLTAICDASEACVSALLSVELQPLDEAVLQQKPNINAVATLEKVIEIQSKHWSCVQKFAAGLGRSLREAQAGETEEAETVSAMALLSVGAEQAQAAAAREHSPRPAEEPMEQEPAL
Chain of HDAC9 (Q9UKV0 whole entry, species assumed): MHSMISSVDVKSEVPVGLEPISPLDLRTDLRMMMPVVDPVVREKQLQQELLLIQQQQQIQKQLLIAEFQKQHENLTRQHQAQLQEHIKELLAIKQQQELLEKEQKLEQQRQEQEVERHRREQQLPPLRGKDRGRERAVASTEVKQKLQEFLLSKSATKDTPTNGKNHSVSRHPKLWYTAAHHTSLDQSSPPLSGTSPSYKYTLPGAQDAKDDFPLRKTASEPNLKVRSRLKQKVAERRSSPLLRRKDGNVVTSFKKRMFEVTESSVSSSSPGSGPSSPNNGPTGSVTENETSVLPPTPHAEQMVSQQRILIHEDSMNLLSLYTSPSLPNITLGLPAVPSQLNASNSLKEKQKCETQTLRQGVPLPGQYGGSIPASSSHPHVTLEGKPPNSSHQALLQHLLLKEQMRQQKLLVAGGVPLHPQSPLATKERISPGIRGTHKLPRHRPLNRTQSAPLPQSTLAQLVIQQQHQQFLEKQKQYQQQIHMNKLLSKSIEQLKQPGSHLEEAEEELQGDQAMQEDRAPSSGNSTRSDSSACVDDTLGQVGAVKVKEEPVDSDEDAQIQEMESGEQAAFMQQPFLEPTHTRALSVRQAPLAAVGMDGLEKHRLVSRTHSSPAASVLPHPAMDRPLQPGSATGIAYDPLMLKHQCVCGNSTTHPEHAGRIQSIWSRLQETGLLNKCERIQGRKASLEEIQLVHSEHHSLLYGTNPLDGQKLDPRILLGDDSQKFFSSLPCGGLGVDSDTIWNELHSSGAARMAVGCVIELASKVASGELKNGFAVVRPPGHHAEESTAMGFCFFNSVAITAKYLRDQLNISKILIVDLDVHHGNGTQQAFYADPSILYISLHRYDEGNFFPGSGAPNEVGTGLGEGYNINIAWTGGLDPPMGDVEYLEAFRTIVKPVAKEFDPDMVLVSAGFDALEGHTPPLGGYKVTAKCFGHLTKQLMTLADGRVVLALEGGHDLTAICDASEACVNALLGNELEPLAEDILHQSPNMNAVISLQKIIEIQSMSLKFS

O=C(NO)c1ccc(Cn2c3c(c4ccccc42)C(=O)C(CN2CCOCC2)CC3)cc1 (centres unmarked) [Compound 87, N-hydroxy-4-((3-(morpholinomethyl)-4-oxo-1,2,3,4-tetrahydrocarbazol-9-yl)methyl)benzamide]
IC50 [1]: 5.08 µM
IC50 [2, 5]: 0.0131 µM
Selectivity for HDAC6, HD1/HD6 ([2]; Table 12): 411.8
IC50 [2, 6]: 0.00745 µM
IC50 ([2]; data of Table 11, read-out: IC50 against HDAC6): 0.013 µM
selectivity for HDAC6 over HDAC1 ([2]; from the data of Table 11): more than 800 times
clinical score decreased, compared with the positive control group ([3]; 10 mg/kg s.c. once a day for 7 days): 44%
clinical score decreased, compared with the positive control group ([3]; 50 mpk s.c. once a day for 7 days): 68%
body-weight loss ([3]; collagen-induced arthritis mice, 10 and 50 mg/kg s.c.): no observation of body-weight loss
IC50 [4]: 1.75 µM

CC1(C)CC(=O)c2c(C(F)(F)F)nn(Cc3ccc(C(=O)NO)cc3)c2C1 [Compound 237, 4-((6,6-dimethyl-4-oxo-3-(trifluoromethyl)-4,5,6,7-tetrahydro-1H-indazol-1-yl)methyl)-N-hydroxybenzamide]
IC50 [1]: 16 µM
IC50 [2, 5]: 0.0322 µM
Selectivity for HDAC6, HD1/HD6 ([2]; Table 12): 219.3
IC50 [2, 6]: 0.0178 µM
selectivity for HDAC6 over HDAC1 ([2]; from the data of Table 12): more than 219 times
IC50 [4]: 16.9 µM

CN1CCN(C(=O)N(CCCCCCC(=O)NO)c2ccc(-c3ccc4cnn(C)c4c3)cc2)CC1 [CKD-581, reference compound]
IC50 [1]: 0.00109 µM
IC50 [2, 5]: 0.00239 µM
IC50 [4]: 0.00042 µM

O=C(NO)c1ccc(Cn2c3c(c4ccccc42)C(=O)N(CCN2CCOCC2)CC3)cc1 [Compound 249, N-hydroxy-4-((2-(2-morpholinoethyl)-1-oxo-1,2,3,4-tetrahydropyrido[4,3-b]indol-5-yl)methyl)benzamide]
IC50 [1]: 4.62 µM
IC50 [2, 5]: 0.00509 µM
Selectivity for HDAC6, HD1/HD6 ([2]; Table 12): 162.2
IC50 [2, 6]: 0.0213 µM
IC50 [4]: 1.03 µM

CN1CCN(CC2CCc3c(c4cc(F)ccc4n3Cc3ccc(C(=O)NO)cc3)C2=O)CC1 (centres unmarked) [Compound 142, 4-((6-fluoro-3-((4-methylpiperazin-1-yl)methyl)-4-oxo-1,2,3,4-tetrahydrocarbazol-9-yl)methyl)-N-hydroxybenzamide]
IC50 [1]: 4.27 µM
IC50 [2, 5]: 0.00355 µM
Selectivity for HDAC6, HD1/HD6 ([2]; Table 12): 568.3
IC50 [2, 6]: 0.0047 µM
IC50 [4]: 1.88 µM
